“Also recorded” adds a separate entry of the source.
Tests used:
Assay type in all cases: cell-based
mouse macrophages [1] = assay: Crystal uptake (phagocytosis) in mouse macrophages, confocal reflection microscopy; settings: cytochalasin D 2.5 μM
From the text: Confocal reflection microscopy was combined with fluorescence microscopy on a Leica SP2 AOBS confocal laser scanning microscope. Reflection was captured by placing the detector channel directly over the wavelength of the selected laser channel for reflection light capture and the AOBS was set to allow 5-15% of laser light into the collection channel. Fluorescence was simultaneously captured by standard confocal imaging techniques.
To visualize the uptake of crystalline material in living cells, we devised a method to image crystals simultaneously with cellular components stained with fluorescent dyes (FIG. 8b). We used this method to study the uptake of crystals into mouse macrophages. […] The median length of silica Q6 crystals engulfed by phagocytosis was 1.65 μm (FIG. 3c).

mouse macrophages [2] = assay: IL-1β release from LPS-primed mouse macrophages (bone marrow-derived, B6-MCLs), ELISA; settings: LPS-primed B6-MCLs, cytochalasin D 30 min
Procedure: (§1) Bone marrow derived macrophages were generated as described (Severa, M et al. Journal of Biological Chemistry 281:26188-26195 (2006)). Human PBMCs were isolated by from whole blood of healthy volunteers by density gradient centrifugation. Lysis of red blood cells was performed using red blood cell lysis buffer (Sigma). Experiments in PBMCs and macrophages were carried out at a cell density of 2×10^6 cells/ml. All primary cells and cell lines except THP-1 cells were cultured in DMEM supplemented with L-glutamine, ciprofloxacin (Cellgro, Manassas, Va.) and 10% fetal calf serum (Hyclone, Logan, Utah). THP-1 cells were cultured in RPMI supplemented with 10% fetal calf serum (Hyclone), L-glutamine, sodium pyruvate (Cellgro), and ciprofloxacin. One day prior to stimulation, THP-1 cells were differentiated using 0.5 μM PMA for three hours, washed three times and plated for stimulation. All experiments that were performed for Western blot analysis were carried out in serum free DMEM medium. ATP stimulations were carried out at 5 mM one hour prior to harvesting supernatants.
Immortalized macrophage cell lines were generated using the previously described J2 recombinant retrovirus (carrying v-myc and v-raf/mil oncogenes) (Roberson, S. M. & Walker, W. S. Cellular immunology 116:341-351 (1988)). Briefly, primary bone marrow cells were incubated in L929 conditioned medium for 3-4 days to induce macrophage differentiation. Subsequently, cells were infected with J2 recombinant retrovirus. Cells were maintained in culture for 3-6 months slowly weaning off the percentage of L929 supernatant until cells were growing in the absence of conditioned medium.
Macrophage phenotype was verified by surface marker expression for CD11b and F480 as well as a range of functional parameters, including responsiveness to TLR ligands and bacterial uptake. Macrophage cell lines from wild-type (C57BL6), NALP3- and ASC-deficient mice were generated and are referred to as B6-MCLs, NALP3 -MCLs and ASC-MCLs.
(§2) Cell culture supernatants were assayed for IL-1β using ELISA kits from BD Biosciences (Franklin Lakes, NJ) according to the manufacturer's instructions. To measure intracellular IL-1β, cells were washed and subjected to three freeze thaw cycles in assay diluent.
(§3) Stimulations were carried out in serum free DMEM medium. Microglial cells and macrophages were primed with 100 U/ml IFNγ (Griess assay, TNF ELISA, real-time quantitative PCR) or 100 ng/ml ultrapure LPS (IL-1β ELISA, FLICA, ASC-CFP microglia cell line assay, Western blot) 1-3 h prior to stimulation with Aβ, revAβ, zymosan, ATP or transfection with dAdT.

mouse microglia [3] = assay: IL-1β release from LPS-primed mouse microglia (ELISA)
Procedure: For primary cultures, bone marrow-derived macrophages and microglia were isolated as described^42,43 and cultured in DMEM supplemented with L-glutamine, ciprofloxacin (Cellgro, Manassas, Va.) and 10% fetal calf serum (Hyclone, Logan, Utah) Immortalized macrophage and microglial cell lines were generated using J2 recombinant retrovirus (carrying v-myc and v-raf oncogenes)^44,45. Briefly, primary bone marrow cells were incubated in L929 conditioned medium for 3-4 days to induce macrophage differentiation. Cells were then infected with J2 recombinant retrovirus and maintained in culture until cells were growing in the absence of conditioned medium. Similarly, primary mixed glial cultures were cultured until fully confluent. After two consecutive infections with J2 retrovirus, cells were maintained in normal medium until growth of microglial cells in colonies was observed. The semi-adherent colonies of microglial cells were washed off and cultured in new flasks. […] Microglial cell lines form wild type (C57/BL6), Caspase-1^−/− and IL-IR^−/− mice as well as macrophage cell lines from wild type (C57BL6), NALP3 -, IPAF- and ASC-deficient mice were generated and used for experiments as indicated.
as §3
(§4) Cell culture supernatants were assayed for IL-1β and TNFα using ELISA kits from R&D Systems (Minneapolis, Minn.) according to the manufacturer's instructions. Nitric oxide was measured by Griess reaction of nitrites accumulated in the supernatants using chemicals from Sigma.

human PBMCs = assay: IL-1β release from human PBMCs (ELISA, Western blot)
Procedure: as §1, §2
Cell culture supernatants were precipitated by adding an equal volume of methanol and 0.25 volumes of chloroform, vortexed and centrifuged at 20.000×g for 10 min. The upper phase was discarded and 500 μl of methanol was added to the interphase. This mixture was centrifuged at 20.000×g for 10 min and the protein pellet dried at 55° C., resuspended in Laemmli buffer and boiled at 99° C. for 5 min. Samples were separated by SDS-PAGE (15%) and transferred onto nitrocellulose membranes. […]

mouse microglia [4] = assay: Nitric oxide production by primed microglia (Griess reaction); settings: primed immortalized microglia, 24 h
Procedure: as §3, §4

mouse microglia [5] = assay: TNF-α release from primed microglia (ELISA); settings: primed immortalized microglia, 24 h
Procedure: as §3, §4

[6] = wild type immortalized microglia
[7] = human PBMCs pretreated with cytochalasin D

C=C1[C@@H](C)[C@H]2[C@H](Cc3ccccc3)NC(=O)[C@]23[C@H](OC(C)=O)/C=C/[C@@](C)(O)C(=O)[C@@H](C)C/C=C/[C@H]3[C@@H]1O [cytochalasin D]
phagocytosis of silica or MSU crystals by treated cells (mouse macrophages [1]): failed to engulf | IL-1β response to ATP, inhibitor present (mouse macrophages [2]): unaffected | IL-1β release after treatment with MSU or silica crystals, inhibitor present (mouse macrophages [2]; MSU 250 μg/ml, silica 500 μg/ml): abrogated | ATP-induced IL-1β release in presence of cytochalasin D (mouse microglia [3]; [6]): no effect; also recorded: not affected | Aβ-induced IL-1β release in presence of cytochalasin D (mouse microglia [3]; [6]): strongly attenuated; also recorded: dose-dependently inhibited | IL-1β release after treatment with MSU or silica crystals, inhibitor pretreatment (human PBMCs; [7]): completely abrogated | IL-1β response to R-848 or ATP, inhibitor pretreatment (human PBMCs; [7]): unaffected

COC(=O)C[C@H](NC(=O)[C@H](C)NC(=O)[C@@H](NC(=O)[C@H](Cc1ccc(O)cc1)NC(=O)OCc1ccccc1)C(C)C)C(=O)CF [z-YVAD, z-YVAD-fmk]
ATP-induced IL-1β release in presence of caspase-1 inhibitor (mouse microglia [3]; primary microglia): also inhibited | Aβ-induced IL-1β release in presence of caspase-1 inhibitor (mouse microglia [3]; primary microglia): dose-dependently reduced | Aβ-induced IL-1β release in presence of caspase-1 inhibitor (mouse microglia [3]; wild type immortalized microglial cells, 6 h): dose-dependent inhibition; also recorded: significant attenuation | Aβ-induced NO production, inhibitor present (mouse microglia [4]): strongly and dose-dependently attenuated; also recorded: strongly inhibited | IL-1β response to silica crystal treatment in presence of inhibitor (human PBMCs; LPS-primed human PBMCs, silica crystals, z-YVAD, 6 h): almost completely abolished | Aβ-induced TNF-α release, inhibitor present (mouse microglia [5]): attenuated; also recorded: inhibited
